Measurements reported in patent publication US20260347364A1, “PYRAZOLO[4,3-F]QUINAZOLINE DERIVATIVES AS MODULATORS OF G12D MUTANT KRAS USEFUL FOR THE TREATMENT OF CANCER” (JAZZ PHARMACEUTICALS IRELAND LTD., priority 2023, published 2026).

Assays:
KRAS G12D = molecular target: T1, KRAS G12D (Homo sapiens, UniProt P01116, G12D); test: HTRF nucleotide exchange assay, KRAS G12D; type: biochemical; settings: class symbols; for IC50: HTRF nucleotide exchange assay (NEA)
T1 construct: aa1-188 KRAS WT, HRAS WT, NRAS WT, or KRAS containing the G12D

KRAS WT = molecular target: T2, KRAS WT (Homo sapiens, UniProt P01116); test: HTRF nucleotide exchange assay, KRAS WT; type: biochemical; settings: class symbols; for IC50: HTRF nucleotide exchange assay (NEA)
T2 construct: aa1-188 KRAS WT

SMILES	IC50 (KRAS G12D)	IC50 (KRAS WT)	KRAS^WT NEA (KRAS WT)	KRAS^G12D NEA (KRAS G12D)
CCc1c(F)ccc2cc(O)cc(-c3cc4nc(OC[C@@]56CCCN5C[C@H](F)C6)nc(N5CC6CC(O)C(C6)C5)c4c4cn(C)nc34)c12 (stereo partly drawn) [Example 124, 3-[4-(8-ethyl-7-fluoro-3-hydroxy-1-naphthyl)-2-methyl-7-[[(2R,8S)-2-fluoro-1,2,3,5,6,7-hexahydropyrrolizin-8-yl]methoxy]pyrazolo[4,3-f]quinazolin-9-yl]-3-azabicyclo[3.2.1]octan-6-ol]	≤ 10 nM	≤ 10 nM		
CCc1c(F)ccc2cc(O)cc(-c3cc4nc(OC[C@@]56CCCN5C[C@H](F)C6)nc(N5CCCC6(CCO6)C5)c4c4cn(C)nc34)c12 (stereo partly drawn) [Example 125, 5-ethyl-6-fluoro-4-[2-methyl-9-(1-oxa-8-azaspiro[3.5]nonan-8-yl)-7-[[(2R,8S)-2-fluoro-1,2,3,5,6,7-hexahydropyrrolizin-8-yl]methoxy]pyrazolo[4,3-f]quinazolin-4-yl]naphthalen-2-ol]	10 to 100 nM	10 to 100 nM		
CCc1c(F)ccc2cc(O)cc(-c3cc4nc(OC[C@@]56CCCN5C[C@H](F)C6)nc(N5CCC(O)C(F)(F)CC5)c4c4cn(C)nc34)c12 (stereo partly drawn) [Example 126, 1-[4-(8-ethyl-7-fluoro-3-hydroxy-1-naphthyl)-2-methyl-7-[[(2R,8S)-2-fluoro-1,2,3,5,6,7-hexahydropyrrolizin-8-yl]methoxy]pyrazolo[4,3-f]quinazolin-9-yl]-5,5-difluoro-azepan-4-ol]	10 to 100 nM	10 to 100 nM		
CCc1c(F)ccc2cc(O)cc(-c3cc4nc(OC[C@@]56CCCN5C[C@H](F)C6)nc(N5CCC6CC6(O)C5)c4c4cn(C)nc34)c12 (stereo partly drawn) [Example 127, 3-[4-(8-ethyl-7-fluoro-3-hydroxy-1-naphthyl)-2-methyl-7-[[(2R,8S)-2-fluoro-1,2,3,5,6,7-hexahydropyrrolizin-8-yl]methoxy]pyrazolo[4,3-f]quinazolin-9-yl]-3-azabicyclo[4.1.0]heptan-1-ol]	10 to 100 nM	10 to 100 nM		
CCc1c(F)ccc2cc(O)cc(-c3cc4nc(OC[C@@]56CCCN5C[C@H](F)C6)nc(N5CC(C(C)(C)O)C5)c4c4cn(C)nc34)c12 [Example 128, 5-ethyl-6-fluoro-4-[9-[3-(1-hydroxy-1-methyl-ethyl)azetidin-1-yl]-2-methyl-7-[[(2R,8S)-2-fluoro-1,2,3,5,6,7-hexahydropyrrolizin-8-yl]methoxy]pyrazolo[4,3-f]quinazolin-4-yl]naphthalen-2-ol]	100 to 10000 nM		D (<49% inhibition at 10 μM)	
CCc1c(F)ccc2cc(O)cc(-c3cc4nc(OC[C@@]56CCCN5C[C@H](F)C6)nc(N5CCCC(C)(C#N)C5)c4c4cn(C)nc34)c12 (stereo partly drawn) [Example 132, 1-[4-(8-ethyl-7-fluoro-3-hydroxy-1-naphthyl)-2-methyl-7-[[(2R,8S)-2-fluoro-1,2,3,5,6,7-hexahydropyrrolizin-8-yl]methoxy]pyrazolo[4,3-f]quinazolin-9-yl]-3-methyl-piperidine-3-carbonitrile]	100 to 10000 nM	100 to 10000 nM		
CCc1c(F)ccc2cc(O)cc(-c3cc4nc(OC[C@@]56CCCN5C[C@H](F)C6)nc(N5CCC(C)C(O)C5)c4c4cn(C)nc34)c12 (stereo partly drawn) [Example 133, 1-[4-(8-ethyl-7-fluoro-3-hydroxy-1-naphthyl)-2-methyl-7-[[(2R,8S)-2-fluoro-1,2,3,5,6,7-hexahydropyrrolizin-8-yl]methoxy]pyrazolo[4,3-f]quinazolin-9-yl]-4-methyl-piperidin-3-ol]	10 to 100 nM	100 to 10000 nM		
CCc1c(F)ccc2cc(O)cc(-c3cc4nc(OC[C@@]56CCCN5C[C@H](F)C6)nc(N5CCCC(O)(C(C)C)C5)c4c4cn(C)nc34)c12 (stereo partly drawn) [Example 134, 1-[4-(8-ethyl-7-fluoro-3-hydroxy-1-naphthyl)-2-methyl-7-[[(2R,8S)-2-fluoro-1,2,3,5,6,7-hexahydropyrrolizin-8-yl]methoxy]pyrazolo[4,3-f]quinazolin-9-yl]-3-isopropyl-piperidin-3-ol]	100 to 10000 nM		D (<49% inhibition at 10 μM)	
CCc1c(F)ccc2cc(O)cc(-c3cc4nc(OC[C@@]56CCCN5C[C@H](F)C6)nc(N5CCC5C(C)(C)O)c4c4cn(C)nc34)c12 (stereo partly drawn) [Example 135, 5-ethyl-6-fluoro-4-[9-[2-(1-hydroxy-1-methyl-ethyl)azetidin-1-yl]-2-methyl-7-[[(2R,8S)-2-fluoro-1,2,3,5,6,7-hexahydropyrrolizin-8-yl]methoxy]pyrazolo[4,3-f]quinazolin-4-yl]naphthalen-2-ol]	100 to 10000 nM	10 to 100 nM		
CCc1c(F)ccc2cc(O)cc(-c3c(C)c4nc(OCC5(C)CC(OC)CN5)nc(N5CCOCC(C)(O)C5)c4c4cn(C)nc34)c12 (stereo not drawn) [Example 137, 4-[4-(8-ethyl-7-fluoro-3-hydroxy-1-naphthyl)-7-[(4-methoxy-2-methyl-pyrrolidin-2-yl)methoxy]-2,5-dimethyl-pyrazolo[4,3-f]quinazolin-9-yl]-6-methyl-1,4-oxazepan-6-ol]	≤ 10 nM	≤ 10 nM		
CCc1c(F)ccc2cc(O)cc(-c3c(C)c4nc(OC[C@@H]5C[C@@H](F)CN5)nc(N5CCOCC(C)(O)C5)c4c4cn(C)nc34)c12 (stereo partly drawn) [Example 140, 4-[4-(8-ethyl-7-fluoro-3-hydroxy-1-naphthyl)-2,5-dimethyl-7-[[(2S,4R)-4-fluoropyrrolidin-2-yl]methoxy]pyrazolo[4,3-f]quinazolin-9-yl]-6-methyl-1,4-oxazepan-6-ol]	≤ 10 nM	≤ 10 nM		
CCc1c(F)ccc2cc(O)cc(-c3c(C)c4nc(OCC5(C)C[C@@H](O)CN5C)nc(N5CCOCC(C)(O)C5)c4c4cn(C)nc34)c12 (stereo partly drawn) [Example 141, 4-[4-(8-ethyl-7-fluoro-3-hydroxy-1-naphthyl)-2,5-dimethyl-7-[[(4R)-4-hydroxy-1,2-dimethyl-pyrrolidin-2-yl]methoxy]pyrazolo[4,3-f]quinazolin-9-yl]-6-methyl-1,4-oxazepan-6-ol]	≤ 10 nM	≤ 10 nM		
CCc1c(F)ccc2cc(O)cc(-c3c(C)c4nc(OCC5(CN(C)C)CC5)nc(N5CCOCC(C)(O)C5)c4c4cn(C)nc34)c12 (stereo not drawn) [Example 142, 4-[7-[[1-[(dimethylamino)methyl]cyclopropyl]methoxy]-4-(8-ethyl-7-fluoro-3-hydroxy-1-naphthyl)-2,5-dimethyl-pyrazolo[4,3-f]quinazolin-9-yl]-6-methyl-1,4-oxazepan-6-ol]	≤ 10 nM	≤ 10 nM		
CCc1c(F)ccc2cc(O)cc(-c3c(C)c4nc(OC[C@@H]5CCN5C)nc(N5CCOCC(C)(O)C5)c4c4cn(C)nc34)c12 (stereo partly drawn) [Example 143, 4-[4-(8-ethyl-7-fluoro-3-hydroxy-1-naphthyl)-2,5-dimethyl-7-[[(2S)-1-methylazetidin-2-yl]methoxy]pyrazolo[4,3-f]quinazolin-9-yl]-6-methyl-1,4-oxazepan-6-ol]	≤ 10 nM	≤ 10 nM		
CCc1c(F)ccc2cc(O)cc(-c3c(C)c4nc(OC[C@@H]5CCN5)nc(N5CCOCC(C)(O)C5)c4c4cn(C)nc34)c12 (stereo partly drawn) [Example 144, 4-[4-(8-ethyl-7-fluoro-3-hydroxy-1-naphthyl)-2,5-dimethyl-7-[[(2S)-azetidin-2-yl]methoxy]pyrazolo[4,3-f]quinazolin-9-yl]-6-methyl-1,4-oxazepan-6-ol]	≤ 10 nM	10 to 100 nM		

Other lines, results leading:

IC50 (KRAS G12D)	IC50 (KRAS WT)	KRAS^WT NEA (KRAS WT)	KRAS^G12D NEA (KRAS G12D)	SMILES
10 to 100 nM	10 to 100 nM			C#CC1(O)CCCN(c2nc(OC[C@@]34CCCN3C[C@H](F)C4)nc3cc(-c4cc(O)cc5ccc(F)c(CC)c45)c4nn(C)cc4c23)C1 (stereo partly drawn) [Example 129, 1-[4-(8-ethyl-7-fluoro-3-hydroxy-1-naphthyl)-2-methyl-7-[[(2R,8S)-2-fluoro-1,2,3,5,6,7-hexahydropyrrolizin-8-yl]methoxy]pyrazolo[4,3-f]quinazolin-9-yl]-3-ethynyl-piperidin-3-ol]
	100 to 10000 nM		D (<49% inhibition at 10 μM)	CCc1c(F)ccc2cc(O)cc(-c3cc4nc(OC[C@@]56CCCN5C[C@H](F)C6)nc(N5CCC6(CC6)C(O)C5)c4c4cn(C)nc34)c12 (stereo partly drawn) [Example 130, 6-[4-(8-ethyl-7-fluoro-3-hydroxy-1-naphthyl)-2-methyl-7-[[(2R,8S)-2-fluoro-1,2,3,5,6,7-hexahydropyrrolizin-8-yl]methoxy]pyrazolo[4,3-f]quinazolin-9-yl]-6-azaspiro[2.5]octan-8-ol]
10 to 100 nM	100 to 10000 nM			CCc1c(F)ccc2cc(O)cc(-c3cc4nc(OC[C@@]56CCCN5C[C@H](F)C6)nc(N5CCCC(C)(OC)C5)c4c4cn(C)nc34)c12 (stereo partly drawn) [Example 131, 5-ethyl-6-fluoro-4-[9-(3-methoxy-3-methyl-1-piperidyl)-2-methyl-7-[[(2R,8S)-2-fluoro-1,2,3,5,6,7-hexahydropyrrolizin-8-yl]methoxy]pyrazolo[4,3-f]quinazolin-4-yl]naphthalen-2-ol]
≤ 10 nM	≤ 10 nM			CCc1c(F)ccc2cc(O)cc(-c3cc4nc(OC[C@@]56CCCN5C[C@H](F)C6)nc(N5CCCC6(CC(O)C6)C5)c4c4cn(C)nc34)c12 (stereo partly drawn) [Example 136, 6-[4-(8-ethyl-7-fluoro-3-hydroxy-1-naphthyl)-2-methyl-7-[[(2R,8S)-2-fluoro-1,2,3,5,6,7-hexahydropyrrolizin-8-yl]methoxy]pyrazolo[4,3-f]quinazolin-9-yl]-6-azaspiro[3.5]nonan-2-ol]
≤ 10 nM	≤ 10 nM			CCc1c(F)ccc2cc(O)cc(-c3c(C)c4nc(OC[C@@H]5CCCN5C)nc(N5CCOCC(C)(O)C5)c4c4cn(C)nc34)c12 (stereo partly drawn) [Example 138, 4-[4-(8-ethyl-7-fluoro-3-hydroxy-1-naphthyl)-2,5-dimethyl-7-[[(2S)-1-methylpyrrolidin-2-yl]methoxy]pyrazolo[4,3-f]quinazolin-9-yl]-6-methyl-1,4-oxazepan-6-ol]
≤ 10 nM	≤ 10 nM			CCc1c(F)ccc2cc(O)cc(-c3c(C)c4nc(OC[C@]5(C)CCCN5)nc(N5CCOCC(C)(O)C5)c4c4cn(C)nc34)c12 (stereo partly drawn) [Example 139, 4-[4-(8-ethyl-7-fluoro-3-hydroxy-1-naphthyl)-2,5-dimethyl-7-[[(2S)-2-methylpyrrolidin-2-yl]methoxy]pyrazolo[4,3-f]quinazolin-9-yl]-6-methyl-1,4-oxazepan-6-ol]
